Assay results taken from PMC6271966, “Synthesis and Biological Activity of Some Bile Acid-Based Camptothecin Analogues” (Molecules, 2014).
Read-outs that look alike come from different tables or passages of the source.

Key:
[1] = test system: human hepatoma cell line (SMMC-7721); assay: MTT cytotoxicity assay, SMMC-7721; assay type: cell-based
Procedure: (§1) The cytotoxicity of these compounds against three cancer cell lines was assayed using a conventional microtitre plate tetrazolium cytotoxicity assay. The human hepatoma cancer cell line (SMMC-7721), the colon cancer cell line (HCT-116), and the human breast cancer cell line (MCF-7) were provided by The Chinese Academy of Sciences cell bank. These cells were plated at a density of 1 × 10^5 cells/mL and incubated in a 96-well late for 24 h (37 °C, 5% CO2). The cells were then exposed to various concentrations of the compounds (0.0032, 0.016, 0.08, 0.4, 2, 10, and 50 µM/mL) continuously for 72 h. After this incubation, MTT solution (20 μL, 5 mg/mL) was added to each well and incubated for a further 4 h before removing the media. Formazan crystals were then dissolved by the addition of DMSO (100 μL per well). After mixing, the absorbance was read at 540 nm on a microplate reader. These assays were performed in three independent experiments. Wells containing no drugs, or CPT, were used as negative and positive controls, respectively. The IC50 values, defined as the concentration of compounds that produced a 50% decrease in surviving cells, were calculated using the Logit-method.

MCF-7 cells = assay: Fluorescence microscopy of compound entry into MCF-7 cells; assay type: cell-based, human; conditions: data not shown
Procedure: (§2) Compound E2 (final concentrations of 10 µM/mL and […]) and CPT (final concentrations of 10 µM/mL and 20 µM/mL) were directly added to the cell culture medium and incubated for 1 h, 2 h or 4 h at 37 °C. The cells were then gently washed three times with physiological saline. Cellular fluorescence was imaged using a fluorescence microscope (Zeiss inverted Microscope Axiovert 200 equipped with a NIKON DS-FiL (Sendai, Japan). The images were taken using ultraviolet light.

[2] = Body weight and surviving mice in the H22 in vivo study; set-up: species or system mouse; conditions: for Mice Number End of Study: 4 mice at start
Procedure: Anti-tumour activity screens of CPT-bile acid analogues were conducted in KM mice with H22 mouse liver tumours. […] These groups (n = 4) were treated with either vehicle (control), CPT, or the CPT-bile acid analogues. Mice received i.p. treatments once every two days.

[3] = Lactone stability in rat blood serum (HPLC); assay type: in vitro ADME
Procedure: Compounds E2, F2, G2, and H2 were dissolved in DMSO (100 μL, 4 mM/L) and incubated in rat blood serum (4 mL) at 37 °C. Aliquots were taken at different time points (0, 2, 4, 6, 8, 10, 12, and 24 h) and examined by HPLC, using CPT as the reference.

[4] = in this project
Procedure: Preliminary anti-tumour activity studies of E2, G4, and H2 were evaluated in vivo in a mouse liver adenocarcinoma model (H22) and compared with CPT.

[5] = test system: human colon cancer cell line (HCT-116); assay: MTT cytotoxicity assay, HCT-116; assay type: cell-based
Procedure: as §1

SMMC-7721 cells = assay: Fluorescence microscopy of compound entry into SMMC-7721 cells; assay type: cell-based, human; conditions: 10 or 20 µM, up to 4 h at 37 °C, ultraviolet light
Procedure: as §2

H22 mouse liver tumours = assay: In vivo anti-tumour activity, H22 mouse liver tumour model; conditions: H22 KM mice, i.p. every two days
Procedure: Anti-tumour activity screens of CPT-bile acid analogues were conducted in KM mice with H22 mouse liver tumours. Briefly, female mice weighing 18–22 g were subcutaneously inoculated at the right flank with a tumour cell suspension (1 × 10^6 cells) in 0.2 mL of phosphate-buffered saline. The mice were divided into subgroups 24 h after inoculation. These groups (n = 4) were treated with either vehicle (control), CPT, or the CPT-bile acid analogues. Mice received i.p. treatments once every two days. When the tumour weight of the control group reached 1.0–1.5 g, the mice were killed and the TIR (%) calculated.

[6] = test system: human breast cancer cell line (MCF-7); assay: MTT cytotoxicity assay, MCF-7; assay type: cell-based
Procedure: as §1

[7] = SMMC-7721, 72 h, read-out: In Vitro Cytotoxicity (IC50, µM) SMMC7721
[8] = HCT-116, 72 h, read-out: In Vitro Cytotoxicity (IC50, µM) HCT-116
[9] = MCF7, 72 h, read-out: In Vitro Cytotoxicity (IC50, µM) MCF-7

CC[C@@]1(O)C(=O)OCc2c1cc1n(c2=O)Cc2cc3ccccc3nc2-1 [CPT, Camptothecin]
IC50 ([1]; MTT, 72 h exposure, SMMC-7721, read-out: In Vitro Cytotoxicity (IC50, µM) SMMC7721): 0.56 µM | Cellular fluorescence (accumulation in cells) (MCF-7 cells): no fluorescent signal | Mice Number End of Study ([2]; dose 27.45 × 3 µmol/kg i.p.): 3 | Body Weight (g) End of Study ([2]; dose 27.45 × 3 µmol/kg i.p., start of study 21.4 g): 18.6 g | half-life at 97.6 µM ([3]; rat blood serum, 37 °C, HPLC, up to 24 h, read-out: Half-Life (converted)): 2.3 h | maximum dose which the mouse can tolerate [4]: 27.45 µmol/kg | IC50 ([5]; MTT, 72 h exposure, HCT-116, read-out: In Vitro Cytotoxicity (IC50, µM) HCT-116): 0.52 µM | Cellular fluorescence (accumulation in cells) (SMMC-7721 cells): no distinct fluorescence | TIR (%) (H22 mouse liver tumours; dose 27.45 × 3 µmol/kg): 67.26% | IC50 ([6]; MCF7, MTT, 72 h exposure, MCF-7, read-out: In Vitro Cytotoxicity (IC50, µM) MCF-7): 0.57 µM

CC[C@@]1(OC(=O)CNC(=O)CCC(C)C2CCC3C4CCC5C[C@H](O)CC[C@]5(C)C4C[C@H](O)[C@]23C)C(=O)OCc2c1cc1n(c2=O)Cc2cc3ccccc3nc2-1 (stereo partly drawn) [Compound E2, Camptothecin-20 (S)-O-glycine Ester-[N-(3′α,12′α-dihydroxy-24′-carbonyl-5′β-cholane)]]
IC50 [1, 7]: 0.36 µM | Cellular fluorescence (accumulation in cells) (MCF-7 cells): no fluorescent signal | Mice Number End of Study ([2]; dose 19.23 × 3 µmol/kg i.p.): 4 | Body Weight (g) End of Study ([2]; dose 19.23 × 3 µmol/kg i.p., start of study 19.9 g): 21.9 g | Mice Number End of Study ([2]; dose 38.45 × 3 µmol/kg i.p.): 4 | Body Weight (g) End of Study ([2]; dose 38.45 × 3 µmol/kg i.p., start of study 20.5 g): 21.5 g | Mice Number End of Study ([2]; dose 57.69 × 3 µmol/kg i.p.): 4 | Body Weight (g) End of Study ([2]; dose 57.69 × 3 µmol/kg i.p., start of study 20.5 g): 20.6 g | half-life at 97.6 µM ([3]; rat, serum): > 24 h | IC50 [5, 8]: 15.8 µM | melting point: 203 to 204 °C | Cellular fluorescence (accumulation in cells) (SMMC-7721 cells): accumulated in the SMMC-7721 cells | TIR (%) (H22 mouse liver tumours; dose 19.23 × 3 µmol/kg): 4.09% | TIR (%) (H22 mouse liver tumours; dose 38.45 × 3 µmol/kg): 16.10% | TIR (%) (H22 mouse liver tumours; dose 57.69 × 3 µmol/kg): 40.13% | IC50 [6, 9]: 150 µM

CC[C@@]1(O)C(=O)OCc2c1cc1n(c2=O)Cc2cc3cc(OCCCOC(=O)CCC(C)C4CCC5C6CCC7C[C@H](O)CCC7C6C[C@H](O)C45)ccc3nc2-1 (stereo partly drawn) [Compound H2, 10-O-(3-O-(3′α,12′α-Dihydroxy-24′-carbonyl-5′β-cholan)-propyl)-20(S)-camptothecin]
IC50 [1, 7]: 2.74 µM | Mice Number End of Study ([2]; dose 18.82 × 3 µmol/kg i.p.): 3 | Body Weight (g) End of Study ([2]; dose 18.82 × 3 µmol/kg i.p., start of study 22.1 g): 21.1 g | Mice Number End of Study ([2]; dose 37.64 × 3 µmol/kg i.p.): 4 | Body Weight (g) End of Study ([2]; dose 37.64 × 3 µmol/kg i.p., start of study 21.9 g): 18.2 g | Mice Number End of Study ([2]; dose 56.46 × 3 µmol/kg i.p.): 3 | Body Weight (g) End of Study ([2]; dose 56.46 × 3 µmol/kg i.p., start of study 21.6 g): 20.0 g | half-life at 97.6 µM ([3]; rat, serum): > 24 h | IC50 [5, 8]: 0.8 µM | TIR (%) (H22 mouse liver tumours; dose 18.82 × 3 µmol/kg): 13.27% | TIR (%) (H22 mouse liver tumours; dose 37.64 × 3 µmol/kg): 57.99% | TIR (%) (H22 mouse liver tumours; dose 56.46 × 3 µmol/kg): 61.19% | IC50 [6, 9]: 2.5 µM
